# From patent US11912705B2, “Cathinone derivatives, pharmaceutical formulations, and methods” (The Corporation of Mercer University, priority 2020, dated 2024)
# Assays:
# [1] = molecular target: T1, Norepinephrine transporter (Homo sapiens, UniProt P23975); assay: Norepinephrine transporter uptake (h); assay type: cell-based
# T1 construct: Eurofins/Cerep (contract testing)
# Method: For antagonist assays, Kb affinity values were calculated from IC50 values using GraphPad Prism 9 (San Diego, Calif. USA).
# M2 (h) = molecular target: T2, M2 (h) (Homo sapiens, UniProt P08172); assay: M2 (h) antagonist effect, cAMP HTRF cellular functional assay; assay type: cell-based
# T2 construct: expressed in transfected cells; host or cells: CHO cells (human recombinant)
# T2 sequence (P08172 1-466): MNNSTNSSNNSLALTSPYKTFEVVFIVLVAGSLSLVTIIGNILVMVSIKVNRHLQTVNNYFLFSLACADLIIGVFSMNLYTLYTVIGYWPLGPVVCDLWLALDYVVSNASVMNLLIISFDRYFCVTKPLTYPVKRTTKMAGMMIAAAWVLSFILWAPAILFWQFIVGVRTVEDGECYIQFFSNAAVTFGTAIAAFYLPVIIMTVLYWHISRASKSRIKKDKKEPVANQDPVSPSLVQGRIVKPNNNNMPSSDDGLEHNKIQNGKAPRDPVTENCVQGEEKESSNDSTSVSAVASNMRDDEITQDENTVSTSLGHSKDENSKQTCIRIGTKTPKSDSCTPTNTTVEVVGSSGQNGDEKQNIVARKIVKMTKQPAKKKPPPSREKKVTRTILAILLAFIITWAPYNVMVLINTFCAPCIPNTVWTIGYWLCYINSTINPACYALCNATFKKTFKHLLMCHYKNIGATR
# Method: Compounds (1) and (2) were tested at several concentrations for IC50 or EC50 determination at target receptors. […] For antagonist assays, Kb affinity values were calculated from IC50 values using GraphPad Prism 9 (San Diego, Calif. USA).
# [2] = tested on: mice on the FVB background; assay: Defecation (fecal pellets) / gastrointestinal motility in mice; assay type: in vivo; conditions: 2.8 mg/kg, s.c.
# Method: Since functional inhibition of neurotransmitter transporters, particularly DAT, is classically known to cause psychomotor stimulation, the ability of Compound (1) to induce this effect in mice was assessed, directly comparing results to α-PHP, a pyrrolidine-substituted analog of Compound (1). Adult male and female mice on the FVB background were injected subcutaneously and then immediately placed inside of an open field chamber, where their activity was recorded automatically for 20-min by an overhead camera connected to a PC running EthoVision XT software. […] Data are means (±SEM).
# Consistent with pre-synaptic M2R antagonist activity, also observed was an increase in defecation caused by Compound (1) (FIG. 4). […] Regarding FIG. 4, Compound (1) (2.8 mg/kg, s.c.) increased gastrointestinal motility compared to vehicle and α-PHP (2.8 mg/kg, s.c.) treated mice. Scatter dot plots with means (±SEMs).
# M2Rs = molecular target: T3, M2Rs (Homo sapiens, UniProt P08172); assay: M2R β-arrestin recruitment; assay type: cell-based
# T3 sequence (P08172 1-466): T2 sequence (P08172 1-466)
# Excerpt: Data are shown as normalized means (±SEM) of two, independent determinations, with oxotremorine tested at each concentration in duplicate and α-PHP tested in quadruplicate. [*Basal signaling is defined as the normalized RLU emitted by untreated cells.]
# human M1Rs = molecular target: T4, human M1Rs (Homo sapiens, UniProt P11229); assay: M1R phosphoinositide hydrolysis (IP-One HTRF); assay type: cell-based
# T4 construct: host or cells: HEK293 (CRL-1573, ATCC), transient
# T4 sequence (P11229 1-460): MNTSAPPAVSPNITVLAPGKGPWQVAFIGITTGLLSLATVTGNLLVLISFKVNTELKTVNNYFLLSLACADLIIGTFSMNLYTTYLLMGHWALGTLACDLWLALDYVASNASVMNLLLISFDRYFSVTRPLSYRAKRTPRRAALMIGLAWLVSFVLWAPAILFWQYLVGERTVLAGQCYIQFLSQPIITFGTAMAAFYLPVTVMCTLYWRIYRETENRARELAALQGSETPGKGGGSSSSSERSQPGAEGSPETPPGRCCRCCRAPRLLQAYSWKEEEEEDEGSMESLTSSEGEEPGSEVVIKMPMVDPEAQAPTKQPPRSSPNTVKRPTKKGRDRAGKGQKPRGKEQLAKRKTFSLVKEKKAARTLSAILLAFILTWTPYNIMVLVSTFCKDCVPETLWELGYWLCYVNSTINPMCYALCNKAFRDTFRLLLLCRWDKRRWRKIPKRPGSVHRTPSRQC
# human DAT [3] = molecular target: T5, human DAT (Homo sapiens, UniProt Q01959); conditions: from Eshleman et al. 2017, cited from earlier work
# T5 sequence (Q01959 whole entry): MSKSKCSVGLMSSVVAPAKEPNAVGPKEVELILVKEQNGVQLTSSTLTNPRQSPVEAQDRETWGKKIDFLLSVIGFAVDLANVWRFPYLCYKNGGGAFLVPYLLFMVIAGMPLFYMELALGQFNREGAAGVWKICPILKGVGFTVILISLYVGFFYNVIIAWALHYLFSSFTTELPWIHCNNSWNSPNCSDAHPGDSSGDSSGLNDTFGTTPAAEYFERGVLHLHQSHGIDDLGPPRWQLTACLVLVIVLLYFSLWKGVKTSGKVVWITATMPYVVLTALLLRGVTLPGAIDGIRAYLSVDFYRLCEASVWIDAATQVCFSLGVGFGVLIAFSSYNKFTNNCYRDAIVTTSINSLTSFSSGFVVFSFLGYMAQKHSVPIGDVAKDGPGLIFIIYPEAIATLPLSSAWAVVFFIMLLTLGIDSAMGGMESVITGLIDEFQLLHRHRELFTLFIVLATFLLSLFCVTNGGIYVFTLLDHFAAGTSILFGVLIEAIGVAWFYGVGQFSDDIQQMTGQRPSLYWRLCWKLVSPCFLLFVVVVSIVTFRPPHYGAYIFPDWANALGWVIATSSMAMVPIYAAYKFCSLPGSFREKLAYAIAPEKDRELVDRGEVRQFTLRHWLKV
# human NET [4] = molecular target: T6, human NET (Homo sapiens, UniProt P23975); conditions: from Eshleman et al. 2017, cited from earlier work
# T6 sequence (P23975 whole entry): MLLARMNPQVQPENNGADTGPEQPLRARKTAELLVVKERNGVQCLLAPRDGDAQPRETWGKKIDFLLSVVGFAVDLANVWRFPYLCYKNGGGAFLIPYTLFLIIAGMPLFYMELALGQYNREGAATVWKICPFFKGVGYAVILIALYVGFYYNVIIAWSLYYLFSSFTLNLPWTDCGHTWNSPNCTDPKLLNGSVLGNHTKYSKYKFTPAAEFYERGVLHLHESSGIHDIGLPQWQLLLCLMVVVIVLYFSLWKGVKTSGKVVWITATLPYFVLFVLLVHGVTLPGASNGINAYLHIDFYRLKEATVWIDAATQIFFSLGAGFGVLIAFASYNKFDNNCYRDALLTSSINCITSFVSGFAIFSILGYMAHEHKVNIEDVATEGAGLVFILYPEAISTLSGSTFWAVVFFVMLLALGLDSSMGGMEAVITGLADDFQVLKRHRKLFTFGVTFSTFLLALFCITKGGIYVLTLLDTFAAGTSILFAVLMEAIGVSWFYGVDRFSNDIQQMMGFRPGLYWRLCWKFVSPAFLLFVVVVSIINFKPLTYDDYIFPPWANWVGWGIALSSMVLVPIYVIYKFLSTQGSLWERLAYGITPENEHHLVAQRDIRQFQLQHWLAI
# human SERT [5] = molecular target: T7, human SERT (Homo sapiens, UniProt P31645); conditions: read-out: Affinity (Ki) SERT; from Eshleman et al. 2017; cited from earlier work
# T7 sequence (P31645 whole entry): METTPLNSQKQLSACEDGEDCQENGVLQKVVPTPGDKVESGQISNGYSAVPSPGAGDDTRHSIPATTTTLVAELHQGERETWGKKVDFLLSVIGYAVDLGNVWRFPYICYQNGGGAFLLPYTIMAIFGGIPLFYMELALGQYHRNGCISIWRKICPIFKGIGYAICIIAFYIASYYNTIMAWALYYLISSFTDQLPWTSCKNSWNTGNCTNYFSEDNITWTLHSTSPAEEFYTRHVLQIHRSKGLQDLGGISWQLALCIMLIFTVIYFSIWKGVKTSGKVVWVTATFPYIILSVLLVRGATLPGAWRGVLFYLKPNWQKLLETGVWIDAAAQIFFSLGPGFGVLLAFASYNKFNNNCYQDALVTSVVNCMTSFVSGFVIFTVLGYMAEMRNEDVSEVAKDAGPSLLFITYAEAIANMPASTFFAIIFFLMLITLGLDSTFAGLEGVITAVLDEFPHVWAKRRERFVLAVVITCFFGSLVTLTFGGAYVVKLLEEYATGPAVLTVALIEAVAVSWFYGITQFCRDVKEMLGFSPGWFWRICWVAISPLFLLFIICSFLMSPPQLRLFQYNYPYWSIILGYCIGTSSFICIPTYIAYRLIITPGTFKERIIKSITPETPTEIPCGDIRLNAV
# human DAT [6] = molecular target: T5, human DAT; conditions: read-out: Uptake Inhibition (IC50) DAT; from Eshleman et al. 2017; cited from earlier work
# human NET [7] = molecular target: T6, human NET; conditions: read-out: Uptake Inhibition (IC50) NET; from Eshleman et al. 2017; cited from earlier work
# human SERT [8] = molecular target: T7, human SERT; conditions: read-out: Uptake Inhibition (IC50) SERT; from Eshleman et al. 2017; cited from earlier work
# T1 sequence (P23975 whole entry): as the sequence (P23975 whole entry) above
Structure (SMILES),IC50 [1],IC50 (M2 (h)),Kb (M2 (h)),"number of fecal pellets (defecation, gastrointestinal motility) [2]",Kb (M2Rs),Kb (human M1Rs),"affinity at DAT, fold higher than α-PPP (human DAT [3])",Ki (human DAT [3]; read-out: Affinity (Ki) DAT),"affinity at NET, fold higher than α-PPP (human NET [4])",Ki (human NET [4]; read-out: Affinity (Ki) NET),Ki (human SERT [5]),IC50 (human DAT [6]),IC50 (human NET [7]),IC50 (human SERT [8])
"CCCCC(C(=O)c1ccccc1)N1CCCCC1 (stereo not drawn) [Compound (1), 1-phenyl-2-(piperidin-1-yl)hexan-1-one]",1300 nM,1700 nM,120 nM,significantly higher than both vehicle (p<0.0001) and α-PHP treated mice,,,,,,,,,,
"CCCCC(C(=O)c1ccccc1)N1CCCCCC1 (stereo not drawn) [Compound (2), 2-(azepan-1-yl)-1-phenylhexan-1-one]",1100 nM,2000 nM,160 nM,,,,,,,,,,,
"CCCCC(C(=O)c1ccccc1)N1CCCC1 (stereo not drawn) [α-PHP, 1-phenyl-2-(pyrrolidin-1-yl)hexan-1-one]",,,,no significant difference was observed between the vehicle and α-PHP groups,501 nM,1380 nM,81 fold,16 nM,6 fold,300 nM,33000 nM,22 nM,30 nM,40000 nM
